Source: patent US10576147B2, “Muramyl peptide derivative compound, synthesis and uses thereof” (BHARAT BIOTECH INTERNATIONAL LIMITED, priority 2015, dated 2020)

Experiments:
BALB/c mice [1] = test: OVA-specific IgG after immunization (indirect ELISA); format: in vivo; details: OVA 100 μg alone, s.c. Days 1 and 15, sera 2 weeks after last immunization
Protocol: (§1) Male BALB/c mice were immunized subcutaneously with OVA 100 μg alone or with OVA 100 μg dissolved in saline containing analogues (7.5, 15 or 30 μg) on Days 1 and 15. Sera were collected 2 weeks after the last immunization. OVA-specific IgG antibodies in the sera were measured by an Indirect ELISA. The values are presented as log 2 titre.

BALB/c mice [2] = test: Total IgG1 and IgG2a after immunization (sandwich ELISA); format: in vivo; details: OVA 100 μg alone
Protocol: as §1, with “Total IgG1 and IgG2a” for “OVA-specific IgG”, “Sandwich” for “an Indirect”

With “OVA: Ovalbumin (OVA) antigen, given alone” the “Log(2) IgG Antibody Titre” value (BALB/c mice [1]) was 12.64, the “Log(2) Total IgG1 Antibody Titre” value (BALB/c mice [2]) was 14.39 and the “Log(2) Total IgG2a Antibody Titre” value (BALB/c mice [2]) was 11.89.
